Measurements as given in patent US6673791B2, “Non-nucleoside reverse transcriptase inhibitors” (Boehringer Ingelheim (Canada) Ltd., priority 2001, dated 2004).
Read-outs that look alike come from different tables or passages of the source.

Tests used:
[1] = test system: WT RT (HIV-1 wild type strain); test: EC50 assay, WT RT strain; format: cell-based
From the text: (§1) Reverse TranscriptASE (RT) Assays
(§2) The assays are as described in WO 01/96338A1, the contents of which are hereby incorporated herein. The results are listed in Tables 8 as IC50(nM) and EC50(nM).

[2] = test system: K103N/Y181C (HIV-1 double mutant strain); test: EC50 assay, K103N/Y181C strain; format: cell-based
From the text: as §1, §2

[3] = target: T1, Y188L mutant RT (HIV-1 RT) (Human immunodeficiency virus type 1 group M subtype B, UniProt P03366, Y787L); test: biochemical
T1 construct: mutations that occur in the reverse transcriptase segment of the pol gene
From the text: (§3) Based upon testing of these compounds, as described below, it is known that they inhibit the RNA-dependent DNA polymerase activity of HIV-1 RT. […] Utilising the Reverse Transcriptase (RT) Assay described below, compounds can be tested for their ability to inhibit the RNA-dependent DNA polymerase activity of HIV-1 RT. Certain specific compounds described in the Examples which appear below, were so tested. The results of this testing appear in Table 4 as IC50 (nM) and Table 5 as EC50 (nM).
as §1, §2

[4] = target: T2, V106A mutant RT (HIV-1 RT) (Human immunodeficiency virus type 1 group M subtype B, UniProt P03366, V705A); test: biochemical
T2 construct: mutations that occur in the reverse transcriptase segment of the pol gene
From the text: as §3, §1, §2

[5] = target: T3, K103N/Y181C double mutant RT (HIV-1 RT) (Human immunodeficiency virus type 1 group M subtype B, UniProt P03366, K702N/Y780C); test: biochemical
T3 construct: mutations that occur in the reverse transcriptase segment of the pol gene
From the text: as §3, §1, §2

WT RT (HIV-1 RT) = target: T4, WT RT (HIV-1 RT) (Human immunodeficiency virus type 1 group M subtype B, UniProt P03366); test: biochemical
T4 construct: mutations that occur in the reverse transcriptase segment of the pol gene
From the text: as §3, §1, §2

[6] = wild type, read-out: EC50 WT RT
[7] = K103N/Y181C double mutant, read-out: EC50 K103N/Y181C
[8] = K103N/Y181C double mutant RT, read-out: IC50 K103N/Y181C
[9] = read-out: EC50 WT RT, wild type
[10] = read-out: EC50 K103N/Y181C, K103N/Y181C double mutant
[11] = read-out: IC50 K103N/Y181C, K103N/Y181C double mutant RT
[12] = read-out: IC50 WT RT, wild type RT
[13] = Human immunodeficiency virus 1, read-out: EC50 WT RT (nM)
[14] = Human immunodeficiency virus 1, read-out: EC50 K103N/Y181C (nM), K103N/Y181C double mutant

Row | Compound | EC50 [1, 6] [nM] | EC50 [2, 7] [nM] | IC50 ([3]; read-out: IC50 Y188L) [nM] | IC50 ([4]; read-out: IC50 V106A) [nM] | IC50 [5, 8] [nM] | IC50 (WT RT (HIV-1 RT); wild type RT, read-out: IC50 WT RT) [nM] | EC50 [1, 9] [nM] | EC50 [2, 10] [nM] | IC50 ([3]; IC50 Y188L (nM)) [nM] | IC50 [5, 11] [nM] | IC50 (WT RT (HIV-1 RT); [12]) [nM] | EC50 [1, 13] [nM] | EC50 [2, 14] [nM] | IC50 ([4]; IC50 V106A (nM)) [nM] | IC50 [5] [nM] | IC50 (WT RT (HIV-1 RT)) [nM]
1 | CCN1c2ncc(CCOc3ccc(NC(=O)CCC(=O)O)c4ccccc34)cc2C(=O)N(C)c2cccnc21 [Entry 2006] | < 100 | 100 to 1000 | > 1000 | > 1000 | 100 to 1000 | < 100 |  |  |  |  |  |  |  |  |  | 
2 | CCN1c2ncc(CCOc3ccc(/C=C/C(=O)O)c4ccccc34)cc2C(=O)N(C)c2ccc(F)nc21 [Entry 2014] |  |  |  | 100 to 1000 |  |  | < 100 | 100 to 1000 | > 1000 | 100 to 1000 | < 100 |  |  |  |  | 
3 | CCN1c2ncc(CCOc3ccc(CCC(=O)O)c4c3CCCC4)cc2C(=O)N(C)c2cccnc21 [Entry 5009] |  |  |  |  |  |  |  |  | > 1000 |  |  | < 100 | < 100 | > 1000 | 100 to 1000 | < 100
4 | CCN1c2ncc(CCOc3ccc(CC(C)C(=O)O)c4ccccc34)cc2C(=O)N(C)c2ccc(Cl)nc21 (centres unmarked) [Entry 1044] |  |  |  |  |  |  |  |  | > 1000 |  |  | < 100 | < 100 | > 1000 | 100 to 1000 | < 100
5 | CCN1c2ncc(CCOc3ccc(/C=C/C(=O)O)c4ccccc34)cc2C(=O)N(C)c2ccc(F)nc21 [Entry 1032] |  |  |  |  |  |  |  |  | 100 to 1000 |  |  | < 100 | < 100 | 100 to 1000 | 100 to 1000 | < 100
6 | CCN1c2ncc(CCOc3ccc4cc(C(=O)NC(C)(C)C(=O)O)ccc4c3)cc2C(=O)N(C)c2cccnc21 [Entry 3003] |  |  |  |  |  |  |  |  | > 1000 |  |  | < 100 | 100 to 1000 | 100 to 1000 | 100 to 1000 | < 100
7 | CCN1c2ncc(CCOc3ccc(/C=C/C(=O)O)c4ccccc34)cc2C(=O)N(C)c2ccc(Cl)nc21 [Entry 1029] |  |  |  |  |  |  |  |  | 100 to 1000 |  |  | < 100 | < 100 | 100 to 1000 | 100 to 1000 | < 100
8 | CCN1c2ncc(CCOc3ccc(/C=C(\C)C(=O)O)c4ccccc34)cc2C(=O)Nc2c(C)cc(Cl)nc21 [Entry 1040] |  |  |  |  |  |  |  |  | > 1000 |  |  | < 100 | 100 to 1000 | 100 to 1000 | 100 to 1000 | < 100
9 | CCN1c2ncc(CCOc3ccc(C(=O)O)c4c3CCC4)cc2C(=O)N(C)c2ccc(Cl)nc21 [Entry 4002] |  |  |  |  |  |  |  |  | 100 to 1000 |  |  | < 100 | < 100 | 100 to 1000 | < 100 | < 100
10 | CCN1c2ncc(CCOc3ccc(C(=O)O)c4c3CCCC4)cc2C(=O)N(C)c2ccc(F)nc21 [Entry 5003] |  |  |  |  |  |  |  |  | 100 to 1000 |  |  | < 100 | < 100 | > 1000 | 100 to 1000 | < 100
11 | CCN1c2ncc(CCOc3ccc(/C=C/C(=O)O)c4ccccc34)cc2C(=O)N(C)c2ccc(Cl)nc21 [Entry 2016] |  |  | 100 to 1000 | 100 to 1000 |  |  | < 100 | 100 to 1000 |  | 100 to 1000 | < 100 |  |  |  |  | 
12 | CCN1c2ncc(CCOc3ccc(CC(=O)O)c4ccccc34)cc2C(=O)N(C)c2ccc(F)nc21 [Entry 1009] |  |  |  |  |  |  |  |  | > 1000 |  |  | < 100 | < 100 | > 1000 | 100 to 1000 | < 100
13 | CCN1c2ncc(CCOc3ccc(CC(=O)NN)c4ccccc34)cc2C(=O)N(C)c2ccc(Cl)nc21 [Entry 1016] |  |  |  |  |  |  |  |  | 100 to 1000 |  |  | < 100 | < 100 | 100 to 1000 | < 100 | < 100
14 | CCN1c2ncc(CCOc3ccc(CCC(=O)O)c4ccccc34)cc2C(=O)N(C)c2cccnc21 [Entry 2011] | < 100 | 100 to 1000 | > 1000 | > 1000 | 100 to 1000 |  |  |  |  |  |  |  |  |  |  | 
15 | CCN1c2ncc(CCOc3ccc(/C=C/C(=O)O)c4ccccc34)cc2C(=O)N(C)c2cccnc21 [Entry 1028] |  |  |  |  |  |  |  |  | 100 to 1000 |  |  | < 100 | < 100 | > 1000 | 100 to 1000 | < 100
16 | CCN1c2ncc(CCOc3ccc(/C=C/C(=O)O)c4ccccc34)cc2C(=O)N(C)c2ccc(C)nc21 [Entry 1033] |  |  |  |  |  |  |  |  | 100 to 1000 |  |  | < 100 | < 100 | 100 to 1000 | 100 to 1000 | < 100
